From patent publication US10323229B1, “Three-dimensional human stem cell-derived cortical spheroid model” (The Florida State University Research Foundation, Inc., priority 2015, dated 2019)

Experiments:
[1] = test system: hiPSC-derived neural cells; test: Carbenoxolone neuroprotection from NMDA-induced neurotoxicity (MTT, ROS, poly caspase); type: cell-based, human
Method: (§1) The hiPSC-derived neural cells were tested to determine response to different drugs and small molecules. Neural cells were formed as described in Example 2. After differentiation, the derived neural cells were replated onto Geltrex-coated 96-well plate and treated with N-methyl-D-aspartate (NMDA) at 0, 0.05, 0.5, 1 mM to mimic general neural toxicity. Cells were tested to determine response to neural protective molecules. Carbenoxolone (Cx, Sigma) (Beraki, et al., A pharmacological screening approach for discovery of neuroprotective compounds in ischemic stroke, PLoS One, 8 (2013) e69233) was added at different doses (0, 10 µM, 50 µM) of Cx were added with 0.5 mM NMDA for the first 24 h. Then samples were washed with phosphate buffer and the same doses of Cx were added for another 24 h. The cells were then characterized by MTT, reactive oxygen species (ROS), and poly caspase assays.
(§2) Briefly, the replated neural cells were incubated with 5 mg/mL 3-(4,5-Dimethylthiazol-2-yl)-2,5-diphenyltetrazolium bromide (MTT, Sigma) solution. The absorbance was measured at 500 nm using a microplate reader (Biorad, Richmond, Calif.). Image-iT™ Live Green Reactive Oxygen Species Detection kit (Molecular Probes) was used to detect the intracellular ROS. Briefly, neural cells were seeded at 1×10^5/mL in 96-well plates (100 μL). After 3 days, the cells were rinsed with Hank's balanced salt solution and incubated with 25 μM carboxy-H2DCFDA for 30 min at 37° C. The samples were washed and measured under a fluorescence microplate reader using 488 nm excitation wavelength and 530 nm for emission (Bio-Tek, FLx800, Winoosk, Vt.). Image-iT™ Live Green Poly Caspase Detection kit (Molecular Probes) was used to detect the expression of caspases. The replated cells were incubated for one hour with the fluorescent inhibitor of caspases reagent and analyzed by a fluorescence microplate reader.

[2] = test system: hiPSC-derived neural cells; test: NMDA-induced neurotoxicity (MTT, ROS, poly caspase); type: cell-based, human
Method: as §1, §2

hiPSK3-derived EBs = test: Neural patterning, immunocytochemistry marker quantification; type: cell-based, human; details: day 42 cells, CHIR 3 μM added to purmorphamine/FGF-2/RA
Method: Cells were analyzed using phase contrast microscopy, as described in Example 1 or immunohistochemistry. […] After washing, the cells were incubated with the corresponding secondary antibody: Alexa Fluor® 488 goat anti-Mouse IgG, Alexa Fluor® 488 or 594 goat anti-Rabbit IgG, or Alexa Fluor® 594 donkey anti-goat IgG (Life Technologies). The samples were stained with Hoechst 33342 and visualized under a fluorescent microscope (Olympus IX70, Melville, N.Y.). The images from five independent fields (800-1000 cells) were analyzed using ImageJ software. The proportion of positive cells was calculated based on the intensity of marker of interest normalized to the nuclear intensity, indicating the relative expression among different conditions. A neuronal model was prepared using LDN/SB induction, as discussed in Example 2. Neural patterning of hiPSCs was tuned through treatment with cyclopamine (the antagonist of SHH signaling) or purmorphamine (the agonist of SHH signaling) (Stanton & Peng, Small-molecule modulators of the Sonic Hedgehog signaling pathway, Mol Biosyst, 6 (2010) 44-54). […] After 8 days, the cells were treated with different growth factor combinations: […] (3) FGF-2 (10 ng/mL) and cyclopamine (1 μM, Sigma). […]

[3] = test system: neural cells derived from human iPSK3 cells; test: Aβ1-42 oligomer-induced response in presence of GSK-3β inhibitor CHIR99021 (MTT, ROS, caspase); type: cell-based; details: CH 10 μM with 1 μM Aβ1-42 oligomers, day 46 cells
Excerpt: The cells were subsequently characterized by MTT, ROS, and poly caspase assays (Yan, et al., Cryopreservation of embryonic stem cell-derived multicellular neural aggregates labeled with micron-sized particles of iron oxide for magnetic resonance imaging, Biotechnol Prog, 31 (2015) 510-521; Sart, et al., The microenvironment of embryoid bodies modulated the commitment to neural lineage post-cryopreservation, Tissue Eng Part C: Methods., 21 (2015) 356-366). To evaluate the influence of glycogen synthase kinase (GSK)-3p inhibitor, CHIR99021 (1 or 10 μM) was added to the cultures treated with 1 μM Aβ1-42 oligomers for three days and characterized.
as §2

[4] = test system: neuronal cells derived from hiPSK3 cells; test: MMP-2/-9 inhibitor effects: neurite density, MTT, cell counting; type: cell-based, human; details: phase contrast, 1 μM
Method: Derived neural cells, as described above, were replated onto Geltrex-coated 96-well plate and treated with MMP inhibitors: ARP 100 (MMP-2 inhibitor), MMP-9 inhibitor I, or SB-3CT (MMP-2 and MMP-9 inhibitor) (all from Santa Cruz) at 1 μM.
The cells were then characterized by MTT, reactive oxygen species (ROS), and poly caspase assays. For some experiments, cell numbers were counted using hemocytometer after trypsin/EDTA dissociation.
as §2, with “Image-iT™ Live Green Poly Caspase Detection kit (Molecular Probes) was used to detect the expression of caspases.” left out

SMILES: CC1(C)[C@@H](OC(=O)CCC(=O)O)CC[C@]2(C)[C@H]3C(=O)C=C4[C@@H]5C[C@@](C)(C(=O)O)CC[C@]5(C)CC[C@@]4(C)[C@]3(C)CC[C@@H]12 [carbenoxolone, Carbenoxolone]
- increase in MTT activity ([1]; carbenoxolone 10 or 50 μM with 0.5 mM NMDA): 28-56%
- expression of ROS ([1]; carbenoxolone with 0.5 mM NMDA): reduced expression of ROS
- caspase activity ([1]; carbenoxolone with 0.5 mM NMDA, all three groups): decreased

SMILES: CN[C@H](CC(=O)O)C(=O)O [NMDA, N-methyl-D-aspartate]
- caspase activity ([2]; NMDA 0-1 mM): logarithmic relationship with NMDA concentration
- expression of ROS ([2]; NMDA 0-1 mM): increased logarithmically
- reduction of MTT activity ([2]; NMDA 0.5 or 1 mM, all three groups (control, Purmo, Cyclo)): 30-50%

SMILES: Cc1c[nH]c(-c2cnc(NCCNc3ccc(C#N)cn3)nc2-c2ccc(Cl)cc2Cl)n1 [CHIR99021]
- expression of ISL1 and HB9 (motor neuron differentiation) (hiPSK3-derived EBs): increased
- ROS levels [3]: reduced
- caspase levels [3]: reduced
- increase of MTT activity ([3]; vs. groups without CH or with 1 μM CH): 25-45%

SMILES: O=S(=O)(CC1CS1)c1ccc(Oc2ccccc2)cc1 (stereo not drawn) [SB-3CT]
- neurite density ([4]; Cyclo group (more cortical glutamatergic neurons)): little changes
- neurite density ([4]; Purmo group (more motor neurons)): reduction of neurite density
